{
  "source": "patent US20250281499A1",
  "about": "“FUSED AMINO PYRIMIDINE COMPOUNDS FOR TREATMENT OF NEUROPATHIC AND NEURO-INFLAMMATORY PAIN” (Ovid Therapeutics Inc., priority 2024, published 2025)",
  "target": "T1, KCC2 (Homo sapiens, UniProt Q9H2X9)",
  "T1 construct": "expressed in transfected cells; host or cells: HEK-293 (ATCC CRL-1573), Lipofectamine 2000, used 48-72 h after transfection",
  "T1 sequence (Q9H2X9 1-1116 isoform Q9H2X9-2)": "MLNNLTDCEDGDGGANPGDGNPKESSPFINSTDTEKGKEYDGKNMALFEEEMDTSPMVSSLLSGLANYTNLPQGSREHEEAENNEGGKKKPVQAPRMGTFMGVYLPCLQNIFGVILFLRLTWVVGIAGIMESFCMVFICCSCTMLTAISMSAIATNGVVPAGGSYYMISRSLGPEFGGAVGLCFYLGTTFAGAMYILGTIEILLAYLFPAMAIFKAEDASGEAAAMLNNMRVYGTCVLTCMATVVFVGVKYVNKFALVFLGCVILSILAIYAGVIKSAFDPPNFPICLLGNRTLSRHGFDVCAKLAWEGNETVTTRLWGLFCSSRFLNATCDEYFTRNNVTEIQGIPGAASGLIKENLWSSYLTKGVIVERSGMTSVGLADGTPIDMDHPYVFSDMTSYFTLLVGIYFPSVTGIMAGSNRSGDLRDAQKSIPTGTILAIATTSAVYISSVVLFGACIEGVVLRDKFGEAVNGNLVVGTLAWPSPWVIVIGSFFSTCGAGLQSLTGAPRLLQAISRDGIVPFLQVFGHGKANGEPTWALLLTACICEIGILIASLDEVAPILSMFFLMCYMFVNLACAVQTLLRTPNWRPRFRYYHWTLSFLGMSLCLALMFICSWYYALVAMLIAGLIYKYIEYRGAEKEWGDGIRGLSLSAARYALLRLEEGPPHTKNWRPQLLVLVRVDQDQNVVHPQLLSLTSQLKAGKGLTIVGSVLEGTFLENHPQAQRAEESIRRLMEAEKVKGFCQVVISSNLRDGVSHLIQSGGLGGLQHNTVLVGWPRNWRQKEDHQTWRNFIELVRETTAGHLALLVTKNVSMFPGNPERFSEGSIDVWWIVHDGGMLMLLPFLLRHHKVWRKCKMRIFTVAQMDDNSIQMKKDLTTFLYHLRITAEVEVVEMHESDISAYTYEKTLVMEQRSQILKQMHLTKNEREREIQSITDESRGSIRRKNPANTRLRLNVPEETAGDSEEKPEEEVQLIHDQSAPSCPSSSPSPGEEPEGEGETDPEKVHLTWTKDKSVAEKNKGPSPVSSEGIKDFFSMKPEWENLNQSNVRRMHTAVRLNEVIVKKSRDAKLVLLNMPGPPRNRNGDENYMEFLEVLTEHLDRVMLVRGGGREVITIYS",
  "test": "FLIPR thallium (Tl+) flux assay in HEK-293 cells expressing KCC2",
  "type": "cell-based",
  "conditions": "saturating concentration of 3 μM, 1% BCD vehicle",
  "method": "A multi-tiered high-throughput screening assay was used, leveraging a proprietary library of 1.3 million small molecule compounds from AstraZeneca (Cambridge, UK) to identify chemical entities capable of activating KCC2. A single point concentration of 30 μM was used to identify potassium flux using an established thallium (TI+) influx FLIPR assay as the primary read out in HEK-293 cells overexpressing KCC2 (Cardarelli et al., Nat. Med. 23, 1394-1396 (2017); Conway et al., J Biol Chem 292, 21253-21263 (2017); Lee et al., 2022, supra).\nCell Culture and biotinylation. […]\nFLIPR TI Flux assay. HEK-293 cells were washed with HBSS, and then incubated with loading buffer containing TI sensitive fluorescent dye (https://www.moleculardevices.com), 20 μM bumetanide 20 μM ouabain and 2.5 mM probenecid for 1 h at room temperature (RT) under control conditions or with drugs in the dark using a FlexStation 3 microplate reader (Molecular Devices) and imaged […] for 30 min. Stimulus buffer was added containing 5 mM K^+/0.5 mM Tl^+ and cells were imaged every 1.5 over a 190 second time course The initial rate Tl^+ uptake (Relative Fluorescence Units (RFU) per second) was determined following addition of the stimulus buffer as outlined previously (Conway et al., 2017, supra) (Lee et al., 2022, supra). […]",
  "data": [
    {"molecule": "C[C@@H]1CN(c2nc3c(c(Nc4ccc(C5CCCCC5)cc4)n2)COC3)CCO1", "note": "[Compound A, (R)—N-(4-cyclohexylphenyl)-2-(2-methylmorpholino)-5,7-dihydrofuro[3,4-d]pyrimidin-4-amine]", "values": [
      {"measurement": "maximum potentiation of KCC2", "result": 90, "unit": "%"}
    ]}
  ]
}
